Source: ChEMBL document CHEMBL3885861, “Open TG-GATES”

Organism: Rattus norvegicus
Assay: Open TG-GATES - Regimen: Single
Type: toxicity, organism-based, Sprague-Dawley
Design: regimen Single, gender Male, age 6 weeks
Details: in vivo, iv, 12 mg/kg, route intravenous injection, dose level Low; for APTT / Bas / Eos / Fbg / Hb / Ht / Lym / MCH / MCHC / MCV / Mono / Neu / PT / Plat / RBC / Ret / WBC: tissue Blood; for KIDNEY_L / KIDNEY_R / KIDNEY_TOTAL: tissue Kidney; for LIVER: tissue Liver; for A/G / ALP / ALT / AST / BUN / CRE / Ca / Cl / DBIL / GLC / IP / K / LDH / Na / PL / RALB / TBIL / TC / TG / TP / gamma-GTP: tissue Plasma

CN(C)c1ncnc2c1ncn2[C@@H]1O[C@H](CO)[C@@H](N)[C@H]1O [PUROMYCIN AMINONUCLEOSIDE]
TERMINAL_BW (3 h): 215.3 g
APTT (3 h): 22.9 s
Bas (3 h): 0%
Eos (3 h): 0.8%
Fbg (3 h): 276 mg/dL
Hb (3 h): 13.1 g/dL
Ht (3 h): 38.5%
Lym (3 h): 69.6%
MCH (3 h): 21.4 pg
MCHC (3 h): 33.9%
MCV (3 h): 63.1 fL
Mono (3 h): 4%
Neu (3 h): 24.4%
PT (3 h): 16 s
Plat (3 h): 119.9 x10_4/uL
RBC (3 h): 611.4 x10_4/ul
Ret (3 h): 6.4%
WBC (3 h): 112.8 x10_2/uL
KIDNEY_L (3 h): 1 g
KIDNEY_R (3 h): 1 g
KIDNEY_TOTAL (3 h): 1.9 g
LIVER (3 h): 10 g
A/G (3 h): 1.3
ALP (3 h): 1670.4 IU/L
ALT (3 h): 45.2 IU/L
AST (3 h): 76.6 IU/L
BUN (3 h): 13.6 mg/dL
CRE (3 h): 0.2 mg/dL
Ca (3 h): 11 mg/dL
Cl (3 h): 105.6 meq/L
DBIL (3 h): 0 mg/dL
GLC (3 h): 181.6 mg/dL
IP (3 h): 7.8 mg/dL
K (3 h): 4.2 meq/L
LDH (3 h): 180.2 IU/L
Na (3 h): 141.4 meq/L
PL (3 h): 143.4 mg/dL
RALB (3 h): 3 g/dL
TBIL (3 h): 0.02 mg/dL
TC (3 h): 73.2 mg/dL
TG (3 h): 72.4 mg/dL
TP (3 h): 5.4 g/dL
gamma-GTP (3 h): 1 IU/L
TERMINAL_BW (6 h): 208.1 g
APTT (6 h): 22.9 s
Bas (6 h): 0%
Eos (6 h): 0.8%
Fbg (6 h): 316.4 mg/dL
Hb (6 h): 13.1 g/dL
Ht (6 h): 39.2%
Lym (6 h): 72.8%
MCH (6 h): 20.5 pg
MCHC (6 h): 33.5%
MCV (6 h): 61 fL
Mono (6 h): 3.2%
Neu (6 h): 22.2%
PT (6 h): 15.9 s
Plat (6 h): 119.1 x10_4/uL
RBC (6 h): 643 x10_4/ul
Ret (6 h): 6.5%
WBC (6 h): 104.4 x10_2/uL
KIDNEY_L (6 h): 0.9 g
KIDNEY_R (6 h): 0.9 g
KIDNEY_TOTAL (6 h): 1.8 g
LIVER (6 h): 8.9 g
A/G (6 h): 1.3
ALP (6 h): 1246 IU/L
ALT (6 h): 37.4 IU/L
AST (6 h): 71.2 IU/L
BUN (6 h): 11.6 mg/dL
CRE (6 h): 0.1 mg/dL
Ca (6 h): 11.1 mg/dL
Cl (6 h): 105.6 meq/L
DBIL (6 h): 0 mg/dL
GLC (6 h): 182.4 mg/dL
IP (6 h): 9 mg/dL
K (6 h): 4.3 meq/L
LDH (6 h): 153.4 IU/L
Na (6 h): 140.4 meq/L
PL (6 h): 136.8 mg/dL
RALB (6 h): 3 g/dL
TBIL (6 h): 0.026 mg/dL
TC (6 h): 71.4 mg/dL
TG (6 h): 83 mg/dL
TP (6 h): 5.5 g/dL
gamma-GTP (6 h): 1.2 IU/L
TERMINAL_BW (9 h): 212.5 g
APTT (9 h): 21.5 s
Bas (9 h): 0%
Eos (9 h): 1%
Fbg (9 h): 306.4 mg/dL
Hb (9 h): 12.5 g/dL
Ht (9 h): 37.4%
Lym (9 h): 75%
MCH (9 h): 20.6 pg
MCHC (9 h): 33.5%
MCV (9 h): 61.7 fL
Mono (9 h): 2.8%
Neu (9 h): 20.6%
PT (9 h): 16.2 s
Plat (9 h): 130.4 x10_4/uL
RBC (9 h): 607.8 x10_4/ul
Ret (9 h): 7.7%
WBC (9 h): 98.3 x10_2/uL
KIDNEY_L (9 h): 1 g
KIDNEY_R (9 h): 1 g
KIDNEY_TOTAL (9 h): 1.9 g
LIVER (9 h): 8.5 g
A/G (9 h): 1.3
ALP (9 h): 1182.4 IU/L
ALT (9 h): 35.4 IU/L
AST (9 h): 69.6 IU/L
BUN (9 h): 10.6 mg/dL
CRE (9 h): 0.2 mg/dL
Ca (9 h): 11.1 mg/dL
Cl (9 h): 105.4 meq/L
DBIL (9 h): 0 mg/dL
GLC (9 h): 174 mg/dL
IP (9 h): 9.9 mg/dL
K (9 h): 4.3 meq/L
LDH (9 h): 129.8 IU/L
Na (9 h): 141.6 meq/L
PL (9 h): 132.6 mg/dL
RALB (9 h): 3 g/dL
TBIL (9 h): 0.03 mg/dL
TC (9 h): 71.2 mg/dL
TG (9 h): 81.4 mg/dL
TP (9 h): 5.4 g/dL
gamma-GTP (9 h): 1.2 IU/L
TERMINAL_BW (24 h): 220.5 g
APTT (24 h): 21.8 s
Bas (24 h): 0%
Eos (24 h): 1%
Fbg (24 h): 309.4 mg/dL
Hb (24 h): 13 g/dL
Ht (24 h): 37.8%
Lym (24 h): 82%
MCH (24 h): 20.8 pg
MCHC (24 h): 34.4%
MCV (24 h): 60.5 fL
Mono (24 h): 2.6%
Neu (24 h): 13.6%
PT (24 h): 15.9 s
Plat (24 h): 114.8 x10_4/uL
RBC (24 h): 627.2 x10_4/ul
Ret (24 h): 6.2%
WBC (24 h): 91 x10_2/uL
KIDNEY_L (24 h): 1 g
KIDNEY_R (24 h): 1 g
KIDNEY_TOTAL (24 h): 2 g
LIVER (24 h): 9.9 g
A/G (24 h): 1.2
ALP (24 h): 1421.6 IU/L
ALT (24 h): 43 IU/L
AST (24 h): 72.2 IU/L
BUN (24 h): 17.8 mg/dL
CRE (24 h): 0.2 mg/dL
Ca (24 h): 11.1 mg/dL
Cl (24 h): 104.4 meq/L
DBIL (24 h): 0 mg/dL
GLC (24 h): 188.6 mg/dL
IP (24 h): 8.6 mg/dL
K (24 h): 4.3 meq/L
LDH (24 h): 156.6 IU/L
Na (24 h): 141.4 meq/L
PL (24 h): 153 mg/dL
RALB (24 h): 3.1 g/dL
TBIL (24 h): 0.018 mg/dL
TC (24 h): 75.8 mg/dL
TG (24 h): 119.4 mg/dL
TP (24 h): 5.5 g/dL
gamma-GTP (24 h): 1.2 IU/L
